Here are results for 4 molecules from PMC12080252, “Daphnia magna as an Alternative Model for (Simultaneous) Bioaccumulation and Chronic Toxicity Assessment—Controlled Exposure Study Indicates High Hazard of Heterocyclic PAHs” (Environmental Science & Technology, 2025).

One may read the half-life as how long it takes for the measured level to halve.

Structures are written as SMILES. Several values for one entry are separate records, joined by “and”; a condition that tells them apart may be missing. Identical values can stand only once. Like-named read-outs stand apart in the source and are kept apart here.

Data set [1] in a line: Partitioning between methanolic loading solution and aqueous medium (passive dosing). It is filed as physicochemical. As to conditions: methanolic loading solution vs M4 medium at equilibrium via PDMS disk. As for the experimental part:
Polydimethylsiloxane (PDMS) passive dosing disks, each weighing 2 g with a surface area of 19.6 cm^2, were prepared using SYLGARD 184 silicone elastomer kit and cleaned before use. Details of the procedure are given in Section S3 (SI file). PDMS disks were loaded in methanolic solution or suspension of the test compounds (10 mL solution/disk) with constant shaking for 72 h, wiped with a lint-free tissue, and washed with water for 30 min four times to remove methanol.
The time required to reach equilibrium between the PDMS disk and the aqueous medium was determined by conducting 72-h kinetic experiments. Chemicals were dosed into M4 medium in 250 mL Schott bottles (in triplicates) at a ratio of 1 disk/100 mL M4 medium using disks loaded with methanolic solution of a single test substance. For the controls, the disks were loaded with pure methanol. While shaking the bottles at room temperature, five samples were taken at different time points over 72 h and the equilibration time was determined.
Passive dosing enabled successful quantification of exposure concentrations after centrifugation of algal biomass (CW), closely matching freely dissolved concentrations (Cfree) calculated from partition coefficients between methanol and the medium (KMeOH:medium; see Figure S12 and section S6 for details).
Table S5 Partition coefficients between the methanolic loading solutions (CMeOH, t=0, nominal concentration
in methanol at t=0) and the measured equilibrium concentrations of the aqueous medium (Cmedium, eq).
Compound CMeOH, t=0 Measured KMeOH:medium log log KMeOH:medium Calculated
[mg L-1] Cmedium, eq KMeOH:medium (mean ± SD) Cmedium, eq
* The “calculated CMedium, eq” were reported using the average KMeoH:medium and CMeOH, t=0. […]

The conditions of data set [2]: cited from earlier work; for SW (water solubility): measured in previous work; for log KOW: n-octanol-water partition coefficient; for log KOC: organic carbon-water partition coefficient.
Another data set has as its system Daphnia magna. Briefly: Bioaccumulation test (growth, uptake, depuration; adapted from OECD 305) with passive dosing. Type of data set: in vivo. As to conditions: for log BAF*L5%: 5-day uptake, steady-state not reached, normalized to 5% lipid assuming 1.5% lipid in daphnids, eq 8; for effects on growth (wet weight) in bioaccumulation test: BCRB 21.6, BNF 4.5, BNT 4.3, DNF 0.1 μg L^–1, vs controls, p < 0.05; for log BCFL5% (BAF*L5%) / log k2 (growth-dilution corrected, k2g): Table S7, this study; for k2g (growth dilution corrected depuration rate constant): eq 4; for t95 (time to reach 95% steady-state): estimated from k2, eq 6; for k2 (depuration rate constant): slope of ln CD vs time. As for the experimental part: (§1) Bioaccumulation tests with D. magna were adapted from OECD guideline 305 (for fish).[27] Each compound was tested using 110 animals: 10 for controls and 100 for chemical exposure. The animals, aged 10 days to limit growth dilution and provide sufficient tissue for analysis, were exposed to a single subtoxic concentration of each chemical. The test included three phases: (i) growth, (ii) uptake, and (iii) depuration. A combined chronic toxicity and bioaccumulation test was also conducted in a minimized version (section 2.6).
(§2) Ten days before exposure, 110 juvenile daphnids (<24 h old) were collected from the stock culture and grown in M4 medium. Due to the large number of animals required for this test, the volume of media and amount of food provided to the Daphnia were reduced for experimental feasibility. This was achieved by maintaining a denser population (20 mL medium/daphnid), as well as less food (D. subspicatus equivalent to 0.1 mg C/daphnid/day) compared to the stock culture yet still within the limits allowed by OECD 211. Other dietary supplements (fish food and spirulina) and physical conditions (temperature, light/dark cycle) were the same as the stock culture.
(§3) Before exposure started, 2 L of M4 medium containing D. subspicatus at a density sufficient for 100 daphnids for 5 days (25 mg C L^–1) was dosed with the test substance by shaking with 24 PDMS disks for 72 h. For controls (10 animals), 200 mL of M4 medium containing D. subspicatus ([…]) was equilibrated with 2 disks loaded with pure methanol. Immediately before the start of exposure phase, 10-day old daphnids were transferred to fresh medium for 1 h to clean their guts. Thereafter, 10 control daphnids were placed in 200 mL of pre-equilibrated clean medium with 2 clean PDMS disks, while 100 animals (treatment group) were divided into two beakers, each with 50 animals, 1 L of predosed exposure medium, and 12 loaded disks to begin the 5-day uptake phase.
(§4) Neonates were discarded daily, and animals were sampled at 24 h intervals over 120 h (5 time points, 2 replicates of 5 animals each). Sampled daphnids were transferred to clean medium for 15 min to remove chemicals present on animal surface, dried with lint-free tissue and weighed to determine wet weight. Finally, 5 animals of known mass were combined in each vial and stored at −20 °C until extraction. As passive dosing maintains constant concentrations,[1] medium samples for analysis (with and without biomass) were only taken at the end of the uptake phase.
(§5) 50 animals were first transferred to fresh medium for 15 min to remove exposure solution from their surface, and then placed in a new clean medium for the depuration phase. Animals were sampled at 4 time points (2 replicates of 5 animals each as in the uptake phase) over 69 to 96 h. After sampling, the remaining animals were transferred to fresh medium, and the old medium was collected for analysis. Control animals and their medium were analyzed at the end of both the uptake and depuration phases (5 animals each).
(§6) For quantification of body burdens, 5 daphnids were thawed, homogenized in 5 mL Milli-Q water (IKA T-25 digital Ultra-TURRAX) and extracted twice with 2 mL of hexane. The extracts were combined, dried with Na2SO4, concentrated under a nitrogen stream, and spiked with internal standard.
(§7) The depuration rate constant (k2) was derived by plotting the natural logarithm of CD against time ([h]), with the slope giving k2 (Figure S3).[27] The growth rate constant (kg) was determined from the slope of the regression line in the plot of ln (D. magna wet weight) versus time, and the growth-corrected depuration rate constant (k2g) was calculated using eq 4. [drawing 4] 4
(§8) From k2, the optimal uptake and depuration durations to reach 50% and 95% steady-state were estimated using eqs 5 and 6. [drawing 5] 5 [drawing 6] 6
(§9) The bioaccumulation factor (BAF*) was calculated, even though steady-state was not reached. […]

Assay in data set [3]: as above
The following applies: whole body (homogenate, wet weight); for concentration at 120 h: Daphnia magna, concentration in animal body at end of uptake phase (t = 120 h), read-out: Body burden. Type of data set: in vivo, Daphnia magna. The protocol: as §1, §2, §3, §4, §5, §6, §7, §8, §9

The conditions of data set [4]: Table 1; EPA Comptox where available, otherwise EPISuite MPBPVP v1.43 prediction; cited from earlier work.
Another data set concerns D. magna. In words: PNEC and risk quotient estimation. Also on record: species or system Daphnia magna. As to conditions: environmental concentration of surrogate (CRB, DBF, DBT) / PNEC. From the text: To ensure a precautionary approach, an AF of 100 was applied, which accounts for interspecies variability and uncertainties in extrapolating laboratory findings to real-world conditions.
Environmental concentration (EC) data are obtained from A CRB, B DBF, and C DBT by choosing the highest
concentration that remains below the solubility limit of the respective NSO-PAH, as described in Reference 24.

[5] abbreviates: Table S7, this study, read-out: half-life (converted).
Where [6] appears, read: t50 (time to reach 50% steady-state / depuration half-life), estimated from k2, eq 5.

In the case of `c1ccc2c(c1)ccc1oc3ccc4ccccc4c3c12` [DNF, dinaphtho[2,1-b:1′,2′-d]furan], in data set [1], the “log KMeOH:medium (mean ± SD)” value was determined as 5.98±0.14. Further, in data set [2], the “SW (water solubility)” value is 0.0015 µg/mL, the “log KOW” value is 6.89 and the “log KOC” value is listed as 6.61. Further, in the data set on Daphnia magna, the “log BAF*L5%” value is 3.77 L kg^-1 lipid and 3.77±0.08 L kg^-1 lipid; the “effects on growth (wet weight) in bioaccumulation test” value (from here on “effects on growth (wet weight)”) is given as “No inhibitory growth effects”; the “log BCFL5% (BAF*L5%)” value worked out at 3.77; the “log k2 (growth-dilution corrected, k2g)” value is reported as -1.98 h-1. Further, in the data set with Daphnia magna, the “k2g (growth dilution corrected depuration rate constant)” value is 0.0105 h⁻¹, the “t95 (time to reach 95% steady-state)” value was 232 h and the “k2 (depuration rate constant)” value was 0.0129 h⁻¹. In data set [3], the concentration at 120 h amounted to 176 ng/g. Further, the half-life in data set [3] (setting [5]) was 53.7 h. Also, the half-life in data set [3] (setting [6]) was 54 h. Also, the “VP (vapor pressure)” value in data set [4] is 2.15x10^-8 mm Hg.
Regarding `c1ccc2c(c1)ccc1[nH]c3ccccc3c12` [BCRB, 7H-benzo[c]carbazole], the “log KMeOH:medium (mean ± SD)” value in data set [1] came out at 4.12±0.06. Further, in data set [2], the “SW (water solubility)” value is 0.80 µg/mL, the “log KOW” value was 5.22 and the “log KOC” value is given as 4.84. In the data set with Daphnia magna, the “log BAF*L5%” value came out at 3.60±0.09 L kg^-1 lipid; the “effects on growth (wet weight)” value is listed as “statistically significant effects on growth”; the “log BCFL5% (BAF*L5%)” value is on record as 3.6; the “log k2 (growth-dilution corrected, k2g)” value is given as -0.96 h-1. Moreover, in the data set on Daphnia magna, the “k2g (growth dilution corrected depuration rate constant)” value worked out at 0.109 h⁻¹, the “t95 (time to reach 95% steady-state)” value is recorded as 27 h and the “k2 (depuration rate constant)” value came out at 0.111 h⁻¹. Also, the concentration at 120 h in data set [3] is 25600 ng/g. Besides, the half-life in data set [3] (setting [5]) is 6.23 h. In data set [3] (setting [6]), the half-life was 6 h. The “RQ (EC/PNEC)” value in the data set with D. magna is given as 4000. In data set [4], the “VP (vapor pressure)” value is given as 4.43x10^-8 mm Hg.
Turning to `c1ccc2c(c1)ccc1oc3ccccc3c12` [BNF, benzo[b]naphtho[1,2-d]furan], in data set [1], the “log KMeOH:medium (mean ± SD)” value is listed as 5.26±0.06. In data set [2], the “SW (water solubility)” value is 0.25 µg/mL, the “log KOW” value is 5.6 and the “log KOC” value is given as 4.98. In the data set with Daphnia magna, the “log BAF*L5%” value came to 3.28±0.31 L kg^-1 lipid; the “effects on growth (wet weight)” value is “statistically significant effects on growth”; the “log BCFL5% (BAF*L5%)” value was determined as 3.28; the “log k2 (growth-dilution corrected, k2g)” value is -1.66 h-1. Moreover, in the data set on Daphnia magna, the “k2g (growth dilution corrected depuration rate constant)” value was 0.022 h⁻¹, the “t95 (time to reach 95% steady-state)” value was 120 h and the “k2 (depuration rate constant)” value worked out at 0.025 h⁻¹. Also, the concentration at 120 h in data set [3] was 2580 ng/g. The half-life in data set [3] (setting [5]) is 27.7 h. In addition, the half-life in data set [3] (setting [6]) was 28 h. Further, the “RQ (EC/PNEC)” value in the data set with D. magna is recorded as 21111. Also, in data set [4], the “VP (vapor pressure)” value was 3.36x10^-6 mm Hg.
In the case of `c1ccc2c(c1)ccc1sc3ccccc3c12` [BNT, benzo[b]naphtho[1,2-d]thiophene], the “log KMeOH:medium (mean ± SD)” value in data set [1] is reported as 5.46±0.12. In data set [2], the “SW (water solubility)” value was 0.026 µg/mL, the “log KOW” value is given as 5.75 and the “log KOC” value is recorded as 5.50. In the data set with Daphnia magna, the “log BAF*L5%” value was 4.36 L kg^-1 lipid and 4.36±0.43 L kg^-1 lipid; the “effects on growth (wet weight)” value is on record as “No inhibitory growth effects”; the “log BCFL5% (BAF*L5%)” value came out at 4.36; the “log k2 (growth-dilution corrected, k2g)” value is reported as -1.39 h-1. For the same molecule, in the data set on Daphnia magna, the “k2g (growth dilution corrected depuration rate constant)” value was 0.040 h⁻¹, the “t95 (time to reach 95% steady-state)” value was 71 h and the “k2 (depuration rate constant)” value was determined as 0.042 h⁻¹. Also, the concentration at 120 h in data set [3] came out at 29400 ng/g. The half-life in data set [3] (setting [5]) is 16.5 h. The half-life in data set [3] (setting [6]) is 17 h. Further, the “RQ (EC/PNEC)” value in the data set on D. magna is given as 3333. Also, the “VP (vapor pressure)” value in data set [4] is listed as 8.97x10^-7 mm Hg.
